Assay results: ChEMBL document CHEMBL4414596, “Highly Oxygenated Triterpenoids and Rare Tetraterpenoids from Abies chensiensis and Their Antibacterial Activity” (2019)
Values after ≈ are worked out from the molar mass of the structure shown. Active and inactive are the calls of the source. The rule behind the calls is not given here.

Experiments:
Escherichia coli = experiment: Antibacterial activity against Escherichia coli after 24 hrs by broth microdilution method; format: functional
Klebsiella pneumoniae = experiment: Antibacterial activity against Klebsiella pneumoniae after 24 hrs by broth microdilution method; format: functional
Staphylococcus aureus = experiment: Antibacterial activity against Staphylococcus aureus after 24 hrs by broth microdilution method; format: functional
Bacillus subtilis [1] = experiment: Antibacterial activity against Bacillus subtilis after 24 hrs by broth microdilution method; format: functional
Bacillus subtilis [2] = experiment: Antibacterial activity against Bacillus subtilis assessed as growth inhibition at 5 ug/ml after 10 hrs; format: functional, organism-based
Bacillus subtilis [3] = experiment: Antibacterial activity against Bacillus subtilis assessed as growth inhibition at 10 to 80 ug/ml measured up to 26 hrs relative to control; format: functional
Bacillus subtilis [4] = experiment: Induction of morphological changes in Bacillus subtilis assessed as cell disruption at 10 to 40 ug/ml after 24 hrs by SEM analysis; format: functional, organism-based
Bacillus subtilis [5] = experiment: Induction of morphological changes in Bacillus subtilis assessed as slender shape at 10 to 40 ug/ml after 24 hrs by SEM analysis; format: functional, organism-based
Bacillus subtilis [6] = experiment: Induction of morphological changes in Bacillus subtilis assessed as wrinkled surface at 10 to 40 ug/ml after 24 hrs by SEM analysis; format: functional, organism-based
Bacillus subtilis [7] = experiment: Induction of morphological changes in Bacillus subtilis assessed as irregular size at 10 to 40 ug/ml after 24 hrs by SEM analysis; format: functional, organism-based
Bacillus subtilis [8] = experiment: Antibacterial activity against Bacillus subtilis assessed as growth inhibition at 5 to 80 ug/ml after 2 to 26 hrs relative to control; format: functional

Row | SMILES | MIC (Escherichia coli) [µg/mL] | MIC (Klebsiella pneumoniae) [µg/mL] | MIC (Staphylococcus aureus) [µg/mL] | MIC (Bacillus subtilis [1]) [µg/mL] | growth inhibition (GI) (Bacillus subtilis [2]) | growth inhibition (GI) (Bacillus subtilis [3]) [%] | Activity (Bacillus subtilis [4]) | Activity (Bacillus subtilis [5]) | Activity (Bacillus subtilis [6]) | Activity (Bacillus subtilis [7]) | growth inhibition (GI) (Bacillus subtilis [8]) [%]
1 | C/C(=C\[C@@H](O)C[C@@H](C)[C@H]1CC[C@@]2(C)[C@@H]3CC[C@H]4C(C)(C)[C@@H](O)CC[C@@]45C[C@@]35CC[C@]12C)C(=O)O | > 40 | > 40 | > 40 | 20 (≈ 42.3 µM) |  |  |  |  |  |  | 
2 | C/C(=C\CC[C@@H](C)[C@H]1C[C@@H](O)[C@@]2(C)[C@@H]3CC[C@H]4C(C)(C)[C@@H](O)CC[C@@]45C[C@@]35CC[C@]12C)C(=O)O | > 40 | > 40 | 20 (≈ 42.3 µM) | 10 (≈ 21.2 µM) | Active | 100 |  |  |  |  | 
3 | C/C(=C\CC[C@@H](C)[C@H]1CC[C@@]2(C)[C@@H]3CC[C@H]4C(C)(C)[C@@H](O)CC[C@@]45C[C@@]35CC[C@]12C)C(=O)O [MANGIFEROLIC ACID] | > 40 | > 40 | > 40 | > 40 |  |  |  |  |  |  | 
4 | CC1(C)S[C@@H]2[C@H](NC(=O)[C@H](N)c3ccccc3)C(=O)N2[C@H]1C(=O)O [AMPICILLIN] | > 40 | > 40 | 40 (≈ 114 µM) | > 40 |  |  |  |  |  |  | 
5 | C/C(=C\CC[C@@H](C)[C@H]1C[C@@H](O)[C@@]2(C)[C@@H]3CC[C@H]4C(C)(C)C(=O)CC[C@@]45C[C@@]35CC[C@]12C)C(=O)O | > 40 | > 40 | 40 (≈ 85 µM) | 5 (≈ 10.6 µM) |  |  | Active | Active | Active | Active | 100
6 | CN[C@@H]1[C@H](O[C@H]2[C@H](O[C@H]3[C@H](O)[C@@H](O)[C@H](N=C(N)N)[C@@H](O)[C@@H]3N=C(N)N)O[C@@H](C)[C@]2(O)C=O)O[C@@H](CO)[C@H](O)[C@H]1O [STREPTOMYCIN] | 5 (≈ 8.6 µM) | 5 (≈ 8.6 µM) |  |  |  |  |  |  |  |  | 
7 | C[C@H](CC[C@@H](O)C(C)(C)O)[C@H]1CC[C@@]2(C)[C@@H]3CC[C@H]4C(C)(C)C(=O)CC[C@@]45C[C@@]35CC[C@]12C | > 40 | > 40 | > 40 | > 40 |  |  |  |  |  |  | 
8 | CC1=C[C@@H](C[C@@H](C)[C@H]2CC[C@@]3(C)[C@@H]4CC[C@H]5C(C)(C)[C@@H](O)CC[C@@]56C[C@@]46CC[C@]23C)OC1=O | > 40 | > 40 | > 40 | > 40 |  |  |  |  |  |  | 
9 | C/C(=C\CC[C@@H](C)[C@H]1CC[C@@]2(C)[C@@H]3CC[C@H]4C(C)(C)[C@H](O)CC[C@@]45C[C@@]35CC[C@]12C)C(=O)O [ISOMANGIFEROLIC ACID] | > 40 | > 40 | > 40 | > 40 |  |  |  |  |  |  | 
10 | CC1=CC(O)(C[C@@H](C)[C@H]2CC[C@@]3(C)C4=C(CC[C@]23C)[C@@]2(C)CCC(=O)C(C)(C)[C@@H]2CC4)OC1=O (some centres not stated) | > 40 | > 40 | > 40 | > 40 |  |  |  |  |  |  | 
11 | CO[C@@H]1CC[C@]23C[C@]24CC[C@]2(C)[C@@H]([C@H](C)CC/C=C(\C)C(=O)O)[C@@H](O)[C@@H](O)[C@@]2(C)[C@@H]4CC[C@H]3C1(C)C | > 40 | > 40 | 20 (≈ 39.8 µM) | 20 (≈ 39.8 µM) |  |  |  |  |  |  | 
12 | CO[C@@H]1CC[C@]23C[C@]24CC[C@]2(C)[C@@H]([C@H](C)CC/C=C(\C)C(=O)O)C[C@@H](O)[C@@]2(C)[C@@H]4CC[C@H]3C1(C)C | > 40 | > 40 | > 40 | 20 (≈ 41.1 µM) |  |  |  |  |  |  | 
13 | C=C1CC[C@@](C)([C@H](C)CC(=O)[C@H]2CC(CCC=C(C)C)=CC[C@]2(C)C(=O)O)[C@@]12CCC1=C2CC[C@H]2C(C)(C)[C@@H](O)CC[C@]12C | > 40 | > 40 | > 40 | > 40 |  |  |  |  |  |  | 
14 | CC1=C[C@@H](C[C@@H](C)[C@H]2C[C@@H](O)[C@@]3(C)[C@@H]4CC[C@H]5C(C)(C)[C@H](O)CC[C@@]56C[C@@]46CC[C@]23C)OC1=O | > 40 | > 40 | > 40 | > 40 |  |  |  |  |  |  | 
15 | CO[C@@H]1CC[C@]23C[C@]24CC[C@]2(C)[C@@H]([C@H](C)C[C@H](O)/C=C(\C)C(=O)O)CC[C@@]2(C)[C@@H]4CC[C@H]3C1(C)C | > 40 | > 40 | > 40 | > 40 |  |  |  |  |  |  | 
16 | C/C(=C\CC[C@@H](C)[C@H]1CC[C@@]2(C)[C@@H]3CC[C@H]4C(C)(C)C(=O)CC[C@@]45C[C@@]35CC[C@]12C)C(=O)O [MANGIFERONIC ACID] | > 40 | > 40 | > 40 | > 40 |  |  |  |  |  |  | 
17 | C=C1CC[C@@](C)([C@H](C)CC(=O)C[C@@H](C)C(=O)O)[C@@]12CCC1=C2CC[C@H]2C(C)(C)C(=O)CC[C@]12C | > 40 | > 40 | 40 (≈ 85.3 µM) | 10 (≈ 21.3 µM) |  |  |  |  |  |  | 
18 | C[C@H](CC[C@H](O)[C@](C)(O)CO)[C@H]1CC[C@@]2(C)[C@@H]3CC[C@H]4C(C)(C)[C@@H](O)CC[C@@]45C[C@@]35CC[C@]12C (relative stereo) | > 40 | > 40 | > 40 | > 40 |  |  |  |  |  |  | 
19 | C/C(=C\CC[C@@H](C)[C@H]1[C@@H](O)[C@@H](O)[C@@]2(C)[C@@H]3CC[C@H]4C(C)(C)C(=O)CC[C@@]45C[C@@]35CC[C@]12C)C(=O)O | > 40 | > 40 | > 40 | > 40 |  |  |  |  |  |  | 
20 | C[C@H](CC[C@H](O)[C@](C)(O)CO)[C@H]1CC[C@@]2(C)[C@@H]3CC[C@H]4C(C)(C)C(=O)CC[C@@]45C[C@@]35CC[C@]12C (relative stereo) | > 40 | > 40 | > 40 | > 40 |  |  |  |  |  |  | 
21 | C/C(=C\[C@@H](O)C[C@@H](C)[C@H]1CC[C@@]2(C)C3=C(CC[C@]12C)[C@@]1(C)CCC(=O)C(C)(C)[C@@H]1CC3)C(=O)O | > 40 | > 40 | 40 (≈ 85 µM) | 10 (≈ 21.2 µM) |  |  |  |  |  |  | 
22 | C/C(=C\CC[C@@H](C)[C@H]1C[C@@H](O)[C@@]2(C)[C@@H]3CC[C@H]4C(C)(C)[C@H](O)CC[C@@]45C[C@@]35CC[C@]12C)C(=O)O | > 40 | > 40 | > 40 | 10 (≈ 21.2 µM) |  |  |  |  |  |  | 
23 | O=C(N[C@H](CO)[C@H](O)c1ccc([N+](=O)[O-])cc1)C(Cl)Cl [CHLORAMPHENICOL] | > 40 | > 40 | 20 (≈ 61.9 µM) | 5 (≈ 15.5 µM) |  |  |  |  |  |  | 
